Values after ≈ are worked out from the molar mass of the structure shown.
molecular target: not listed separately; test: Inhibition of HCV 1b NS5B RNA dependent RNA polymerase by scintillation proximity assay; parameters: species or system Hepacivirus hominis; conditions: not given

Compound	IC50 [nM]
CC(=O)N1CCCC(NC(=O)c2ccc3c(C4CCCCC4)c(-c4ccccn4)n(C)c3c2)(C(=O)Nc2ccc(/C=C/C(=O)O)cc2)C1 (racemic)	230
Cn1c(C(=O)O)cc2cc(NC(=O)[C@]3(NC(=O)c4ccc5c(C6CCCCC6)c(-c6ccccn6)n(C)c5c4)CCCNC3)ccc21	44
CN1CCCC(NC(=O)c2ccc3c(C4CCCCC4)c(-c4ccccn4)n(C)c3c2)(C(=O)Nc2ccc(/C=C/C(=O)O)cc2)C1 (racemic)	43
Cn1c(C(=O)O)cc2cc(NC(=O)C(C)(C)NC(=O)c3ccc4c(C5CCCCC5)c(-c5ccccn5)n(C)c4c3)ccc21	75
Cn1c(-c2ccccn2)c(C2CCCCC2)c2ccc(C(=O)NC(C)(C)C(=O)Nc3ccc(-c4nc(C(=O)O)cs4)cc3)cc21	154
Cn1c(-c2ccccn2)c(C2CCCCC2)c2ccc(C(=O)NC3(C(=O)Nc4ccc(S(N)(=O)=O)cc4)CCC3)cc21	312
Cn1c(-c2ccccn2)c(C2CCCCC2)c2ccc(C(=O)NC(C)(C)C(=O)Nc3ccc(-c4ccc(C(=O)O)o4)cc3)cc21	152
Cc1c(C(=O)O)sc2ccc(NC(=O)C3(NC(=O)c4ccc5c(C6CCCCC6)c(-c6ccccn6)n(C)c5c4)CCC3)cc12	122
CN1CCC(NC(=O)c2ccc3c(C4CCCCC4)c(-c4ccccn4)n(C)c3c2)(C(=O)Nc2ccc(/C=C/C(=O)O)cc2)CC1	10

test system: Hepatitis C virus; test: Antiviral activity against Hepatitis C virus genotype 1b infected in human Huh-7 cells assessed as inhibition of viral replication after 72 hrs; assay type: functional, organism-based, Hepacivirus hominis; conditions: Huh-7, 72 h

Compound	EC50 [nM]
CC(=O)N1CCCC(NC(=O)c2ccc3c(C4CCCCC4)c(-c4ccccn4)n(C)c3c2)(C(=O)Nc2ccc(/C=C/C(=O)O)cc2)C1 (racemic)	230
Cn1c(C(=O)O)cc2cc(NC(=O)[C@]3(NC(=O)c4ccc5c(C6CCCCC6)c(-c6ccccn6)n(C)c5c4)CCCNC3)ccc21	245
CN1CCCC(NC(=O)c2ccc3c(C4CCCCC4)c(-c4ccccn4)n(C)c3c2)(C(=O)Nc2ccc(/C=C/C(=O)O)cc2)C1 (racemic)	66
Cn1c(C(=O)O)cc2cc(NC(=O)C(C)(C)NC(=O)c3ccc4c(C5CCCCC5)c(-c5ccccn5)n(C)c4c3)ccc21	143
Cn1c(-c2ccccn2)c(C2CCCCC2)c2ccc(C(=O)NC(C)(C)C(=O)Nc3ccc(-c4nc(C(=O)O)cs4)cc3)cc21	420
Cn1c(-c2ccccn2)c(C2CCCCC2)c2ccc(C(=O)NC3(C(=O)Nc4ccc(S(N)(=O)=O)cc4)CCC3)cc21	350
Cn1c(-c2ccccn2)c(C2CCCCC2)c2ccc(C(=O)NC(C)(C)C(=O)Nc3ccc(-c4ccc(C(=O)O)o4)cc3)cc21	145
Cc1c(C(=O)O)sc2ccc(NC(=O)C3(NC(=O)c4ccc5c(C6CCCCC6)c(-c6ccccn6)n(C)c5c4)CCC3)cc12	68
CN1CCC(NC(=O)c2ccc3c(C4CCCCC4)c(-c4ccccn4)n(C)c3c2)(C(=O)Nc2ccc(/C=C/C(=O)O)cc2)CC1	60

test system: not listed separately; test: Half life in human liver microsomes at 10 uM; conditions: liver microsomes

Compound	half-life at 10 µM [min]
CC(=O)N1CCCC(NC(=O)c2ccc3c(C4CCCCC4)c(-c4ccccn4)n(C)c3c2)(C(=O)Nc2ccc(/C=C/C(=O)O)cc2)C1 (racemic)	256
Cn1c(C(=O)O)cc2cc(NC(=O)[C@]3(NC(=O)c4ccc5c(C6CCCCC6)c(-c6ccccn6)n(C)c5c4)CCCNC3)ccc21	28
Cn1c(C(=O)O)cc2cc(NC(=O)C(C)(C)NC(=O)c3ccc4c(C5CCCCC5)c(-c5ccccn5)n(C)c4c3)ccc21	36
Cn1c(-c2ccccn2)c(C2CCCCC2)c2ccc(C(=O)NC(C)(C)C(=O)Nc3ccc(-c4nc(C(=O)O)cs4)cc3)cc21	55
Cn1c(-c2ccccn2)c(C2CCCCC2)c2ccc(C(=O)NC3(C(=O)Nc4ccc(S(N)(=O)=O)cc4)CCC3)cc21	15
Cn1c(-c2ccccn2)c(C2CCCCC2)c2ccc(C(=O)NC(C)(C)C(=O)Nc3ccc(-c4ccc(C(=O)O)o4)cc3)cc21	43
Cc1c(C(=O)O)sc2ccc(NC(=O)C3(NC(=O)c4ccc5c(C6CCCCC6)c(-c6ccccn6)n(C)c5c4)CCC3)cc12	79
CN1CCC(NC(=O)c2ccc3c(C4CCCCC4)c(-c4ccccn4)n(C)c3c2)(C(=O)Nc2ccc(/C=C/C(=O)O)cc2)CC1	148

test system: not listed separately; test: Permeability across apical to basolateral side in human Caco2 cells; conditions: Caco-2

Compound	Papp A→B [×10⁻⁶ cm/s]
CC(=O)N1CCCC(NC(=O)c2ccc3c(C4CCCCC4)c(-c4ccccn4)n(C)c3c2)(C(=O)Nc2ccc(/C=C/C(=O)O)cc2)C1 (racemic)	5.5
Cn1c(C(=O)O)cc2cc(NC(=O)[C@]3(NC(=O)c4ccc5c(C6CCCCC6)c(-c6ccccn6)n(C)c5c4)CCCNC3)ccc21	< 0.1
Cn1c(C(=O)O)cc2cc(NC(=O)C(C)(C)NC(=O)c3ccc4c(C5CCCCC5)c(-c5ccccn5)n(C)c4c3)ccc21	0.7
Cn1c(-c2ccccn2)c(C2CCCCC2)c2ccc(C(=O)NC(C)(C)C(=O)Nc3ccc(-c4nc(C(=O)O)cs4)cc3)cc21	< 0.1
Cn1c(-c2ccccn2)c(C2CCCCC2)c2ccc(C(=O)NC(C)(C)C(=O)Nc3ccc(-c4ccc(C(=O)O)o4)cc3)cc21	0.2
Cc1c(C(=O)O)sc2ccc(NC(=O)C3(NC(=O)c4ccc5c(C6CCCCC6)c(-c6ccccn6)n(C)c5c4)CCC3)cc12	0.6
CN1CCC(NC(=O)c2ccc3c(C4CCCCC4)c(-c4ccccn4)n(C)c3c2)(C(=O)Nc2ccc(/C=C/C(=O)O)cc2)CC1	0.6

test system: not listed separately; test: Half life in rat liver microsomes at 10 uM; assay type: ADME, Microsome; conditions: not given

Compound	half-life at 10 µM [min]
CN1CCC(NC(=O)c2ccc3c(C4CCCCC4)c(-c4ccccn4)n(C)c3c2)(C(=O)Nc2ccc(/C=C/C(=O)O)cc2)CC1	34

test system: not listed separately; test: Cmax in overnight-fasted Sprague-Dawley rat at 10, mg/kg, po administered by oral gavage; assay type: ADME, organism-based; conditions: in vivo

Compound	Cmax [nM]
CN1CCC(NC(=O)c2ccc3c(C4CCCCC4)c(-c4ccccn4)n(C)c3c2)(C(=O)Nc2ccc(/C=C/C(=O)O)cc2)CC1	< 100

test system: not listed separately; test: Selectivity ratio for polio virus RNA-dependent RNA polymerase to HCV 1b NS5B RNA dependent RNA polymerase; conditions: not given

Compound	Ratio
CC(=O)N1CCCC(NC(=O)c2ccc3c(C4CCCCC4)c(-c4ccccn4)n(C)c3c2)(C(=O)Nc2ccc(/C=C/C(=O)O)cc2)C1 (racemic)	> 150
Cn1c(C(=O)O)cc2cc(NC(=O)[C@]3(NC(=O)c4ccc5c(C6CCCCC6)c(-c6ccccn6)n(C)c5c4)CCCNC3)ccc21	> 150
CN1CCCC(NC(=O)c2ccc3c(C4CCCCC4)c(-c4ccccn4)n(C)c3c2)(C(=O)Nc2ccc(/C=C/C(=O)O)cc2)C1 (racemic)	> 150
Cn1c(C(=O)O)cc2cc(NC(=O)C(C)(C)NC(=O)c3ccc4c(C5CCCCC5)c(-c5ccccn5)n(C)c4c3)ccc21	> 150
Cn1c(-c2ccccn2)c(C2CCCCC2)c2ccc(C(=O)NC(C)(C)C(=O)Nc3ccc(-c4nc(C(=O)O)cs4)cc3)cc21	> 150
Cn1c(-c2ccccn2)c(C2CCCCC2)c2ccc(C(=O)NC3(C(=O)Nc4ccc(S(N)(=O)=O)cc4)CCC3)cc21	> 150
Cn1c(-c2ccccn2)c(C2CCCCC2)c2ccc(C(=O)NC(C)(C)C(=O)Nc3ccc(-c4ccc(C(=O)O)o4)cc3)cc21	> 150
Cc1c(C(=O)O)sc2ccc(NC(=O)C3(NC(=O)c4ccc5c(C6CCCCC6)c(-c6ccccn6)n(C)c5c4)CCC3)cc12	> 150
CN1CCC(NC(=O)c2ccc3c(C4CCCCC4)c(-c4ccccn4)n(C)c3c2)(C(=O)Nc2ccc(/C=C/C(=O)O)cc2)CC1	> 150

test system: not listed separately; test: Selectivity ratio for mammalian DNA-dependent RNA polymerase II to HCV 1b NS5B RNA dependent RNA polymerase; conditions: not given

Compound	Ratio
CC(=O)N1CCCC(NC(=O)c2ccc3c(C4CCCCC4)c(-c4ccccn4)n(C)c3c2)(C(=O)Nc2ccc(/C=C/C(=O)O)cc2)C1 (racemic)	> 150
Cn1c(C(=O)O)cc2cc(NC(=O)[C@]3(NC(=O)c4ccc5c(C6CCCCC6)c(-c6ccccn6)n(C)c5c4)CCCNC3)ccc21	> 150
CN1CCCC(NC(=O)c2ccc3c(C4CCCCC4)c(-c4ccccn4)n(C)c3c2)(C(=O)Nc2ccc(/C=C/C(=O)O)cc2)C1 (racemic)	> 150
Cn1c(C(=O)O)cc2cc(NC(=O)C(C)(C)NC(=O)c3ccc4c(C5CCCCC5)c(-c5ccccn5)n(C)c4c3)ccc21	> 150
Cn1c(-c2ccccn2)c(C2CCCCC2)c2ccc(C(=O)NC(C)(C)C(=O)Nc3ccc(-c4nc(C(=O)O)cs4)cc3)cc21	> 150
Cn1c(-c2ccccn2)c(C2CCCCC2)c2ccc(C(=O)NC3(C(=O)Nc4ccc(S(N)(=O)=O)cc4)CCC3)cc21	> 150
Cn1c(-c2ccccn2)c(C2CCCCC2)c2ccc(C(=O)NC(C)(C)C(=O)Nc3ccc(-c4ccc(C(=O)O)o4)cc3)cc21	> 150
Cc1c(C(=O)O)sc2ccc(NC(=O)C3(NC(=O)c4ccc5c(C6CCCCC6)c(-c6ccccn6)n(C)c5c4)CCC3)cc12	> 150
CN1CCC(NC(=O)c2ccc3c(C4CCCCC4)c(-c4ccccn4)n(C)c3c2)(C(=O)Nc2ccc(/C=C/C(=O)O)cc2)CC1	> 150

test system: not listed separately; test: physchem; conditions: phosphate buffer, pH 7.2

Compound	solubility thermodynamic at 24 h [µg/mL]
CC(=O)N1CCCC(NC(=O)c2ccc3c(C4CCCCC4)c(-c4ccccn4)n(C)c3c2)(C(=O)Nc2ccc(/C=C/C(=O)O)cc2)C1 (racemic)	24 (≈ 37 µM)
Cn1c(C(=O)O)cc2cc(NC(=O)[C@]3(NC(=O)c4ccc5c(C6CCCCC6)c(-c6ccccn6)n(C)c5c4)CCCNC3)ccc21	14 (≈ 22.1 µM)
Cn1c(C(=O)O)cc2cc(NC(=O)C(C)(C)NC(=O)c3ccc4c(C5CCCCC5)c(-c5ccccn5)n(C)c4c3)ccc21	945 (≈ 1600 µM)
Cn1c(-c2ccccn2)c(C2CCCCC2)c2ccc(C(=O)NC(C)(C)C(=O)Nc3ccc(-c4nc(C(=O)O)cs4)cc3)cc21	662 (≈ 1060 µM)
Cn1c(-c2ccccn2)c(C2CCCCC2)c2ccc(C(=O)NC3(C(=O)Nc4ccc(S(N)(=O)=O)cc4)CCC3)cc21	< 0.1
Cn1c(-c2ccccn2)c(C2CCCCC2)c2ccc(C(=O)NC(C)(C)C(=O)Nc3ccc(-c4ccc(C(=O)O)o4)cc3)cc21	> 564
Cc1c(C(=O)O)sc2ccc(NC(=O)C3(NC(=O)c4ccc5c(C6CCCCC6)c(-c6ccccn6)n(C)c5c4)CCC3)cc12	112 (≈ 180 µM)
CN1CCC(NC(=O)c2ccc3c(C4CCCCC4)c(-c4ccccn4)n(C)c3c2)(C(=O)Nc2ccc(/C=C/C(=O)O)cc2)CC1	22 (≈ 35.5 µM)

Reference: ChEMBL document CHEMBL1777782, “Indole 5-carboxamide Thumb Pocket I inhibitors of HCV NS5B polymerase with nanomolar potency in cell-based subgenomic replicons (part 2): central amino acid linker and right-hand-side SAR studies” (Bioorg Med Chem Lett, 2011)
